In patent publication US4605744A, “Imidazole derivatives” (Hoffmann-La Roche Inc., priority 1985, dated 1986):
Counter-ions that a name gives are not always drawn. Like-named read-outs stand apart in the source and are kept apart here.

Columns and labels:
[1] = tested on: P. mirabilis 503-1136; assay: In vitro antibacterial activity (MIC); assay type: cell-based; settings: Proteus mirabilis, 5031136, P. mirabilis 503-1136; read-out: MIC
Procedure, shortened: (§1)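 Read-out: visible growth, checked with a viewer after overnight incubation at 37° C. Bacteria, from a 10^-2 dilution of an overnight culture, were exposed to drug at 128 to 0.008 μg/ml in Mueller-Hinton broth.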

[2] = tested on: P. aeruginosa 5712; assay: In vitro antibacterial activity (MIC); assay type: cell-based; settings: Pseudomonas aeruginosa; P. aeruginosa 5712; read-out: MIC
Procedure, shortened: as §1

[3] = tested on: S. marcescens S714; assay: In vitro antibacterial activity (MIC); assay type: cell-based; settings: Serratia marcescens, S714, S. marcescens S714; read-out: MIC
Procedure, shortened: as §1

[4] = tested on: S. faecalis C1; assay: In vitro antibacterial activity (MIC); assay type: cell-based; settings: Enterococcus faecalis; S. faecalis C1; read-out: MIC
Procedure, shortened: as §1

[5] = tested on: S. marcescens S147; assay: In vitro antibacterial activity (MIC); assay type: cell-based; settings: Serratia marcescens; S. marcescens S147; read-out: MIC
Procedure, shortened: as §1

[6] = tested on: P. aeruginosa B; assay: In vitro antibacterial activity (MIC); assay type: cell-based; settings: Pseudomonas aeruginosa, read-out: MIC
Procedure, shortened: as §1

[7] = tested on: E. cloacae 24; assay: In vitro antibacterial activity (MIC); assay type: cell-based; settings: Enterobacter cloacae, 24, E. cloacae 24; read-out: MIC
Procedure, shortened: as §1

[8] = tested on: P. aeruginosa POW 151; assay: In vitro antibacterial activity (MIC); assay type: cell-based; settings: Pseudomonas aeruginosa, POW151
Procedure, shortened: as §1

[9] = tested on: P. mirabilis 620A; assay: In vitro antibacterial activity (MIC); assay type: cell-based; settings: Proteus mirabilis, 620A
Procedure, shortened: as §1

[10] = tested on: S. aureus 1059B; assay: In vitro antibacterial activity (MIC); assay type: cell-based; settings: Staphylococcus aureus, read-out: MIC
Procedure, shortened: as §1

[11] = tested on: S. aureus Smith; assay: In vitro antibacterial activity (MIC); assay type: cell-based; settings: Staphylococcus aureus, S. aureus Smith; read-out: MIC
Procedure, shortened: as §1

[12] = tested on: S. marcescens S1; assay: In vitro antibacterial activity (MIC); assay type: cell-based; settings: Serratia marcescens
Procedure, shortened: as §1

[13] = tested on: P. aeruginosa Stone 130; assay: In vitro antibacterial activity (MIC); assay type: cell-based; settings: Pseudomonas aeruginosa, STONE130, read-out: MIC
Procedure, shortened: as §1

[14] = tested on: P. aeruginosa 5700; assay: In vitro antibacterial activity (MIC); assay type: cell-based; settings: Pseudomonas aeruginosa, 5700, P. aeruginosa 5700; read-out: MIC
Procedure, shortened: as §1

[15] = tested on: P. mirabilis 90; assay: In vitro antibacterial activity (MIC); assay type: cell-based; settings: Proteus mirabilis, 90, P. mirabilis 90; read-out: MIC
Procedure, shortened: as §1

[16] = tested on: P. vulgaris 101; assay: In vitro antibacterial activity (MIC); assay type: cell-based; settings: Proteus vulgaris, 101, P. vulgaris 101; read-out: MIC
Procedure, shortened: as §1

[17] = tested on: S. marcescens S5; assay: In vitro antibacterial activity (MIC); assay type: cell-based; settings: Serratia marcescens, S5, S. marcescens S5; read-out: MIC
Procedure, shortened: as §1

[18] = tested on: P. vulgaris 100; assay: In vitro antibacterial activity (MIC); assay type: cell-based; settings: Proteus vulgaris
Procedure, shortened: as §1

[19] = tested on: C. freundii CDC6; assay: In vitro antibacterial activity (MIC); assay type: cell-based; settings: Citrobacter freundii, CDC6, C. freundii CDC6; read-out: MIC
Procedure, shortened: as §1

[20] = tested on: S. pyogenes 503-782; assay: In vitro antibacterial activity (MIC); assay type: cell-based; settings: Streptococcus pyogenes, 503782; S. pyogenes 503-782; read-out: MIC
Procedure, shortened: as §1

[21] = tested on: C. diversus CDC 1663-72; assay: In vitro antibacterial activity (MIC); assay type: cell-based; settings: Citrobacter koseri, CDC166372; C. diversus CDC 1663-72; read-out: MIC
Procedure, shortened: as §1

[22] = tested on: E. coli 257; assay: In vitro antibacterial activity (MIC, Mueller-Hinton broth); assay type: cell-based; settings: Escherichia coli, 257, E. coli 257; read-out: MIC
Procedure, shortened: as §1

[23] = tested on: P. aeruginosa 503-56; assay: In vivo antibacterial activity (PD50); settings: Pseudomonas aeruginosa, 50356, sc
[24] = tested on: E. cloacae 6951; assay: In vivo antibacterial activity (PD50); settings: Enterobacter cloacae, 6951, sc, 2 treatments
[25] = tested on: P. aeruginosa 6148B; assay: In vivo antibacterial activity (PD50); settings: Pseudomonas aeruginosa, sc
[26] = tested on: P. aeruginosa 6719; assay: In vivo antibacterial activity (PD50); settings: Pseudomonas aeruginosa, 6719, sc
[27] = tested on: E. cloacae 4633; assay: In vivo activity alone and in combination (PD50, FIC); settings: Enterobacter cloacae, 4633; sc; alone; read-out: PD50 (alone)
Procedure: (§2) In Tables 9-14, the results of the in vivo activity against certain microorganisms of compounds I, M and N as given. […] The results in these Tables and the PD50 's were determined by the procedure set forth on page 160 in Beskid et al., Antimicrobial Agents and Chemotherapy, Vol. 20, No. 2 pp. 159-167 (Aug. 1981) for "in vivo studies".
(§3) In the Tables, the fractional inhibitory concentration index (FIC) for synergistic combination of a compound of this invention (X) with known antibiotic compound (Y) is determined by the following formula:
(§4) FIC=(PD50 (X combination)/PD50 (X alone)+(PD50 (Y
(§5) combination)/PD50 (Y alone)
(§6) An FIC of ≤0.60 is indicative of synergy. The synergy rating in the Tables is as follows:
(§7) In the combination, the parts are parts by weight, i.e. 10 to 1 is 10 parts by weight to 1 part by weight.

[28] = tested on: K. pneumoniae 39; assay: as above; settings: Klebsiella pneumoniae, 39, sc, alone
Procedure: as §2, §3, §4, §5, §6, §7

[29] = tested on: E. coli BC5524; assay: as above; settings: Escherichia coli, BC5524; sc; alone; read-out: PD50 (alone)
Procedure: as §2, §3, §4, §5, §6, §7

[30] = tested on: K. pneumoniae 503-990A; assay: as above; settings: Klebsiella pneumoniae, 503990A, sc, alone
Procedure: as §2, §3, §4, §5, §6, §7

[31] = tested on: K. pneumoniae R2296; assay: as above; settings: Klebsiella pneumoniae, sc, alone
Procedure: as §2, §3, §4, §5, §6, §7

[32] = tested on: P. aeruginosa 8710; assay: In vivo antibacterial activity (PD50); settings: Pseudomonas aeruginosa, 8710, sc, 2 treatments
[33] = tested on: S. pyogenes 4; assay: In vivo antibacterial activity (PD50); settings: Streptococcus pyogenes, 4, sc, read-out: PD50
[34] = tested on: E. aerogenes 8; assay: In vivo antibacterial activity (PD50)
[35] = P. mirabilis 620A, read-out: MIC
[36] = S1, S. marcescens S1, read-out: MIC

| Compound | MIC [1] | MIC [2] | MIC [3] | MIC [4] | MIC [5] | MIC [6] | MIC [7] | MIC [8] | MIC [10] | MIC [11] | MIC [13] | MIC [14] | MIC [15] | MIC [16] | MIC [17] | MIC [19] | MIC [20] | MIC [21] | MIC [22] | ED50 [27] | also measured |
| --- | --- | --- | --- | --- | --- | --- | --- | --- | --- | --- | --- | --- | --- | --- | --- | --- | --- | --- | --- | --- | --- |
| CC1(C)S[C@@H]2[C@H](N=CN3CCC(CC4=NCCN4)CC3)C(=O)N2[C@H]1C(=O)O [M, [2S-(2alpha,5alpha,6beta)]-6-[[[4-[(4,5-dihydro-1H-imidazol-2-yl)methyl]-1-piperidinyl]methylene]amino]-3,3-dimethyl-7-oxo-4-thia-1-azabicyclo[3.2.0]heptane-2-carboxylic acid hydrochloride] | 8 mg/L | 128 mg/L | 0.5 mg/L | 32 mg/L | 0.25 mg/L | 0.25 mg/L | 0.5 mg/L | > 128 mg/L | 32 mg/L | 4 mg/L | > 128 mg/L | 0.125 mg/L | 0.5 mg/L | 16 mg/L | 1 mg/L | 0.125 mg/L | 32 mg/L | 0.062 mg/L | 0.125 mg/L | 34 mg/kg | MIC [9, 35]: > 128 mg/L; MIC [12, 36]: 0.25 mg/L; MIC ([18]; P. vulgaris 100, read-out: MIC): 8 mg/L; ED50 ([23]; challenge 4.7 LD50s, 2 treatments, Table 10): 67 mg/kg; ED50 ([23]; challenge 100 LD50s, 2 treatments, Table 10): 100 mg/kg; ED50 ([24]; challenge 562 LD50s, Table 10): 15 mg/kg; ED50 ([25]; challenge 4.5 LD50s, 3 treatments, Table 10): < 20 mg/kg; ED50 ([25]; challenge 33 LD50s, 3 treatments, Table 10): < 20 mg/kg; ED50 ([26]; challenge 2249 LD50s, 3 treatments, Table 10): 34 mg/kg; ED50 [28]: 5 mg/kg; ED50 [29]: 80 mg/kg; ED50 [30]: 9.4 mg/kg; ED50 [31]: > 250 mg/kg; ED50 ([32]; challenge 10 LD50s, Table 10, read-out: PD50): 54 mg/kg; ED50 ([32]; challenge 562 LD50s, Table 10, read-out: PD50): 59 mg/kg; ED50 ([33]; sc, challenge 100 LD50s, 2 treatments, Table 10): < 2 mg/kg; ED50 ([34]; Klebsiella aerogenes, 8, sc, read-out: PD50, sc, challenge 24 LD50s, 2 treatments, Table 10): 60 mg/kg |
| CC1(C)S[C@@H]2[C@H](N=CN3CCC(CCCn4ccnc4N)CC3)C(=O)N2[C@H]1C(=O)O [I, [2S-(2alpha,5alpha,6beta)]-6-[[[4-[3-(2-amino-1H-imidazol-1-yl)propyl]piperidinyl]methylene]amino]-3,3-dimethyl-7-oxo-4-thia-1-azabicyclo[3.2.0]hpetane-2-carboxylic acid hydrochloride] | 4 mg/L | > 128 mg/L | 0.125 mg/L | > 128 mg/L | 0.062 mg/L | 0.062 mg/L | 0.125 mg/L | > 128 mg/L | 64 mg/L | 16 mg/L | > 128 mg/L | 0.062 mg/L | 4 mg/L | 128 mg/L | 0.25 mg/L | 0.031 mg/L | > 128 mg/L | 0.031 mg/L | 0.031 mg/L | 6.4 mg/kg | MIC [9]: 32 mg/L; MIC [12, 36]: 0.062 mg/L; MIC ([18]; P. vulgaris 100, read-out: MIC): 4 mg/L; ED50 ([23]; Table 9): > 250 mg/kg; ED50 [28]: 115 mg/kg; ED50 [29]: > 250 mg/kg; ED50 ([30]; Table 14 line (1)): < 2 mg/kg; ED50 ([30]; Table 14 line (2)): < 2 mg/kg; ED50 [31]: > 250 mg/kg; ED50 ([33]; sc, Table 9): 11 mg/kg; ED50 ([34]; Klebsiella aerogenes, 8, sc, Table 9, read-out: PD50): > 250 mg/kg |
| CC1(C)S[C@@H]2[C@H](N=CN3CCC(CCC4=NCCN4)CC3)C(=O)N2[C@H]1C(=O)O [N, [2S-(2alpha,5alpha,6beta)]-6-[[[4-[4,5-dihydro-1H-imidazol-2-yl)ethyl]-1-piperidinyl]methylene]amino]-3,3-dimethyl-7-oxo-4-thia-1-azabicyclo[3.2.0]heptane-2-carboxylic acid hydrochloride] | 4 mg/L | 64 mg/L | 0.125 mg/L | 64 mg/L | 0.062 mg/L | 0.062 mg/L | 0.125 mg/L | > 128 mg/L | 64 mg/L | 8 mg/L | > 128 mg/L | 0.062 mg/L | 0.125 mg/L | 64 mg/L | 0.25 mg/L | 0.031 mg/L | 64 mg/L | 0.031 mg/L | 0.031 mg/L | 12 mg/kg | MIC [9, 35]: 128 mg/L; MIC ([12]; S1): 2 mg/L; MIC [18]; 100: 0.5 mg/L; ED50 ([23]; challenge 50 LD50s, 2 treatments, Table 11): 43 mg/kg; ED50 ([24]; challenge 3162 LD50s, Table 11): < 2 mg/kg; ED50 ([25]; challenge 32 LD50s, 2 treatments, Table 11): 37 mg/kg; ED50 ([26]; challenge 2290 LD50s, 2 treatments, Table 11): 22 mg/kg; ED50 [28]: 18 mg/kg; ED50 [29]: 114 mg/kg; ED50 [30]: 5.5 mg/kg; ED50 [31]: > 250 mg/kg; ED50 ([32]; challenge >10^4 LD50s, Table 11, read-out: PD50): 50 mg/kg; ED50 [33]: 4.3 mg/kg; ED50 ([34]; Klebsiella aerogenes, 8, sc, read-out: PD50, sc, challenge 10 LD50s, 2 treatments, Table 11): > 250 mg/kg |
